Consider 27 compounds from the OPERA property sets (Mansouri et al. 2018).

As a reminder, the logP is a log measure of how a compound divides between an organic and an aqueous phase. Lower therefore signals a more hydrophilic compound.

`Cc1ccccc1C(=O)c1ccc2n1CCC2C(=O)O` (configuration not stated): the logP amounted to 2.9.

Compound `OC1(c2ccc(Cl)cc2)CCCCCC1n1cncn1` (configuration not stated) showed a logP of 3.54. The result for `CCC(C(=O)OCc1ccc(C)cc1)C(COC(=O)C(C)(C)C)Cc1cncn1C` (configuration not stated) reads 4.55; that for `CNC(C)C(OC)c1ccccc1` (configuration not stated), 2.05. Regarding `CCC(C(=O)NC(N)=O)(C(=O)OC)c1ccccc1` (configuration not stated), the logP is 1.58. The same measure for `CC(C)C(=O)OCC1OC(n2cc(I)c(=O)[nH]c2=O)C1O` (configuration not stated): 0.83. Compound `O=C(O)/C=C/Oc1ccc(Cl)cc1Cl` yielded a logP of 3.46.

Consider `CCOc1ccc(Cc2cnc(N)nc2N)cc1OC`, for which the logP was 1.34.

As to `C#CCC(O)(CC#C)c1cccnc1`, the logP is 1.29.

`Clc1cccc(Br)c1N=C1NCCN1` had a log partition coefficient (logP) of 1.73. In the case of `O=C(CN1CCCC1)NCc1ccccc1`, the lipophilicity (logP) was determined as 1.69.

On to `C=C(C)C(=O)OCC(C)(O)COc1cccc2ccccc12` (configuration not stated), for which the lipophilicity (logP) is 3.77. The result for `COC(C)(OC)c1ccc(C(O)(Cn2ccnc2)c2ccc(-c3ccncc3)cc2)cc1` (configuration not stated) reads 3.45.

As for `CC(C)(C)c1cc(C2C(=O)c3ccccc3C2=O)cc(C(C)(C)C)c1`, the log partition coefficient (logP) worked out at 6.86. With `O=C(Cn1ccnc1[N+](=O)[O-])N(CCO)CCO`, the lipophilicity (logP) was -1.64. The result for `CCOc1cccc(NC(=O)CN2CCCCC2)c1` reads 3.17. The same measure for `Cc1cccc(C)c1OC(=O)c1ccc(N)cc1O`: 3.88.

As for `CC/C=C\C/C=C\C/C=C\CCCCCCCC(=O)O`, the lipophilicity (logP) was 6.46. The same measure for `O=C(O)c1ccc(Cl)cc1Nc1ccc(I)cc1`: 5.37; for `CCCCCCCCCCCC(=O)CC(=O)Nc1c(OC)cc(OC)cc1OC`: 5.02. Take `O=C1CCC(c2ccccc2)CC1`: the logP turned out to be 2.3. The same measure for `Clc1ccc(-c2ccccc2)c(Cl)c1`: 5.16.

Consider `NS(=O)(=O)c1ccc(Cl)c(Cl)c1`, for which the log partition coefficient (logP) was 1.44. On to `CCCCCCCCCCCC(=O)O`, for which the logP was determined as 4.6.

For the compound `CCN1CC(C(O)C(CC2CCCCC2)NC(=O)C(Cc2cnc[nH]2)NC(=O)C(Cc2ccc(OC)cc2)NC(=O)N2CC(OCOC)C(OCOC)C2)OC1=O` (configuration not stated), the log partition coefficient (logP) was 2.06. Consider `COC(=O)N(C)SN(C)C(=O)ON=C(C)SC`, for which the logP was found to be 1.4. `Cc1ccc2c(c1)C(c1ccccc1)=NCC(=O)N2` returned a log partition coefficient (logP) of 2.62.
